What was measured:
Assay in all cases: In vitro antifungal activity, microbroth dilution MIC
Format in all cases: cell-based
[1] = tested on: Candida tropicalis A. 13803; settings: 4 to 48 hours; for Minimal inhibitory concentration(MIC), C. tropicalis A. 13803: RPMI-1640, 35° C., no growth observed
In short: (§1)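 Broth microdilution adapted from NCCLS M27, in RPMI-1640 with 0.165 M MOPS, pH 7.0. Yeast or mould inoculum at 2×10^3 CFU/ml was mixed 1:1 with DMSO-derived compound solutions (200 to 0.10 μg/ml before mixing) and incubated at 35 °C for 4 to 48 h. MIC was the concentration showing no growth.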

[2] = tested on: Cryptococcus neoformans IFM. 40092; settings: for Minimal inhibitory concentration(MIC), Cry. neoformans IFM. 40092: RPMI-1640, 35° C., no growth observed
In short: as §1

[3] = tested on: Cryptococcus neoformans B. 42419; settings: 4 to 48 hours; for Minimal inhibitory concentration(MIC), Cry. neoformans B. 42419: RPMI-1640, 35° C., no growth observed
In short: as §1

[4] = tested on: Candida parapsitosis A. 7330; settings: 4 to 48 hours; for Minimal inhibitory concentration(MIC), C. parapsitosis A. 7330: RPMI-1640, 35° C., no growth observed
In short: as §1

[5] = tested on: Candida albicans IFO. 1385; settings: 4 to 48 hours; for Minimal inhibitory concentration(MIC), C. albicans IFO. 1385: RPMI-1640, 35° C., no growth observed
In short: as §1

[6] = tested on: Trichophyton mentagrophytes B. 32663; settings: for Minimal inhibitory concentration(MIC), T. mentagrophytes B. 32663: RPMI-1640, 35° C., no growth observed
In short: as §1

[7] = tested on: Cryptococcus neoformans A. 34144; settings: for Minimal inhibitory concentration(MIC), Cry. neoformans A. 34144: RPMI-1640, 35° C., no growth observed
In short: as §1

[8] = tested on: Aspergillus furnigatus B. 19119; settings: for Minimal inhibitory concentration(MIC), A furnigatus B. 19119: RPMI-1640, 35° C., no growth observed
In short: as §1

Candida albicans C1-2 = settings: 4 to 48 hours; for Minimal inhibitory concentration(MIC), C. albicans C1-2: RPMI-1640, 35° C., no growth observed
In short: as §1

[9] = tested on: Candida albicans A. 10231; settings: 4 to 48 hours; for Minimal inhibitory concentration(MIC), C. albicans A. 10231: RPMI-1640, 35° C., no growth observed
In short: as §1

[10] = tested on: Candida pseudotropicalis K. 11658; settings: 4 to 48 hours; for Minimal inhibitory concentration(MIC), C. pseudotropicalis K. 11658: RPMI-1640, 35° C., no growth observed
In short: as §1

[11] = tested on: Aspergillus niger A. 16404; settings: for Minimal inhibitory concentration(MIC), A. niger A. 16404: RPMI-1640, 35° C., no growth observed
In short: as §1

[12] = tested on: Trichophyton mentagrophytes A. 9129; settings: for Minimal inhibitory concentration(MIC), T. mentagrophytes A. 9129: RPMI-1640, 35° C., no growth observed
In short: as §1

Candida krusei K. 11655 = settings: 4 to 48 hours; for Minimal inhibitory concentration(MIC), C. krusei K. 11655: RPMI-1640, 35° C., no growth observed
In short: as §1

[13] = tested on: Torulopsis glabrata B. 16205; settings: 4 to 48 hours; for Minimal inhibitory concentration(MIC), T. glabrata B. 16205: RPMI-1640, 35° C., no growth observed
In short: as §1

| SMILES | Minimal inhibitory concentration(MIC), C. tropicalis A. 13803 [1] [µg/mL] | Minimal inhibitory concentration(MIC), Cry. neoformans IFM. 40092 [2] | Minimal inhibitory concentration(MIC), Cry. neoformans B. 42419 [3] [µg/mL] | Minimal inhibitory concentration(MIC), C. parapsitosis A. 7330 [4] [µg/mL] | Minimal inhibitory concentration(MIC), C. albicans IFO. 1385 [5] [µg/mL] | Minimal inhibitory concentration(MIC), T. mentagrophytes B. 32663 [6] | Minimal inhibitory concentration(MIC), Cry. neoformans A. 34144 [7] [µg/mL] | Minimal inhibitory concentration(MIC), A furnigatus B. 19119 [8] [µg/mL] | Minimal inhibitory concentration(MIC), C. albicans C1-2 (Candida albicans C1-2) [µg/mL] | Minimal inhibitory concentration(MIC), C. albicans A. 10231 [9] [µg/mL] | Minimal inhibitory concentration(MIC), C. pseudotropicalis K. 11658 [10] [µg/mL] | Minimal inhibitory concentration(MIC), A. niger A. 16404 [11] [µg/mL] | Minimal inhibitory concentration(MIC), C. krusei K. 11655 (Candida krusei K. 11655) [µg/mL] | Minimal inhibitory concentration(MIC), T. glabrata B. 16205 [13] [µg/mL] | Minimal inhibitory concentration(MIC), Cry. neoformans IFM. 40092 ([2]; 4 to 48 hours) [µg/mL] | Minimal inhibitory concentration(MIC), T. mentagrophytes B. 32663 ([6]; 4 to 48 hours) [µg/mL] | Minimal inhibitory concentration(MIC), Cry. neoformans A. 34144 ([7]; 4 to 48 hours) [µg/mL] | Minimal inhibitory concentration(MIC), A furnigatus B. 19119 ([8]; 4 to 48 hours) [µg/mL] | Minimal inhibitory concentration(MIC), A. niger A. 16404 ([11]; 4 to 48 hours) [µg/mL] | Minimal inhibitory concentration(MIC), T. mentagrophytes A. 9129 ([12]; 4 to 48 hours) [µg/mL] | further results |
| --- | --- | --- | --- | --- | --- | --- | --- | --- | --- | --- | --- | --- | --- | --- | --- | --- | --- | --- | --- | --- | --- |
| FC(=C(c1cccc(F)c1)C(F)(F)F)N1CCN(c2ccc(OCC3COC(Cn4ccnc4)(c4ccc(F)cc4F)O3)cc2)CC1 (mixture of isomers) [Ex. 147] | >100 | ≦0.10 μg/ml | 0.78 | 0.78 | 0.78 | ≦0.10 μg/ml | 0.78 | 12.5 | >100 | >100 | 0.39 | 100 | 0.39 | 50.0 | – | – | – | – | – | – | Minimal inhibitory concentration(MIC), T. mentagrophytes A. 9129 [12]: 3.13 µg/mL |
| CCCCc1ccc(C(=C(F)N2CCN(c3ccc(OCC4COC(Cn5ccnc5)(c5ccc(F)cc5F)O4)cc3)CC2)C(F)(F)F)cc1 (mixture of isomers) [Ex. 140] | >100 | – | 1.56 | 1.56 | 1.56 | – | – | – | >100 | >100 | 1.56 | – | 3.13 | 100 | 0.39 | 0.39 | 1.56 | 50.0 | >100 | 12.5 | – |
| FC(=C(c1ccc(C(F)(F)F)cc1)C(F)(F)F)N1CCN(c2ccc(OCC3COC(Cn4ccnc4)(c4ccc(F)cc4F)O3)cc2)CC1 (mixture of isomers) [Ex. 142] | >100 | 0.39 µg/mL | 3.13 | 3.13 | 3.13 | 1.56 µg/mL | 3.13 | 50.0 | >100 | >100 | 6.25 | 100 | 6.25 | 100 | – | – | – | – | – | – | Minimal inhibitory concentration(MIC), T. mentagrophytes A. 9129 [12]: 12.5 µg/mL |
| CC(C)Oc1cccc(C=C(F)OCC2COC(Cn3ccnc3)(c3ccc(F)cc3F)O2)c1 (mixture of isomers) [Ex. 45] | – | – | – | – | – | – | – | – | – | – | – | – | – | – | – | – | – | – | – | – | Minimal inhibitory concentration (MIC) ([1]; C. tropicalis A. 13803, RPMI-1640, 35° C.): 50.0 µg/mL; Minimal inhibitory concentration (MIC) ([2]; Cry. neoformans IFM. 40092, RPMI-1640, 35° C., 4 to 48 hours): 0.39 µg/mL; Minimal inhibitory concentration (MIC) ([3]; Cry. neoformans B. 42419, RPMI-1640, 35° C.): 1.56 µg/mL; Minimal inhibitory concentration (MIC) ([4]; C. parapsitosis A. 7330, RPMI-1640, 35° C.): 12.5 µg/mL; Minimal inhibitory concentration (MIC) ([5]; C. albicans IFO. 1385, RPMI-1640, 35° C.): 0.39 µg/mL; Minimal inhibitory concentration (MIC) ([6]; T. mentagrophytes B. 32663, RPMI-1640, 35° C., 4 to 48 hours): 1.56 µg/mL; Minimal inhibitory concentration (MIC) ([7]; Cry. neoformans A. 34144, RPMI-1640, 35° C., 4 to 48 hours): 1.56 µg/mL; Minimal inhibitory concentration (MIC) ([8]; A furnigatus B. 19119, RPMI-1640, 35° C., 4 to 48 hours): 12.5 µg/mL; Minimal inhibitory concentration (MIC) (Candida albicans C1-2; C. albicans C1-2, RPMI-1640, 35° C.): 25.0 µg/mL; Minimal inhibitory concentration (MIC) ([9]; C. albicans A. 10231, RPMI-1640, 35° C.): 25.0 µg/mL; Minimal inhibitory concentration (MIC) ([10]; C. pseudotropicalis K. 11658, RPMI-1640, 35° C.): 6.25 µg/mL; Minimal inhibitory concentration (MIC) ([11]; A. niger A. 16404, RPMI-1640, 35° C., 4 to 48 hours): 100 µg/mL; Minimal inhibitory concentration (MIC) ([12]; T. mentagrophytes A. 9129, RPMI-1640, 35° C., 4 to 48 hours): 6.25 µg/mL; Minimal inhibitory concentration (MIC) (Candida krusei K. 11655; C. krusei K. 11655, RPMI-1640, 35° C.): 12.5 µg/mL; Minimal inhibitory concentration (MIC) ([13]; T. glabrata B. 16205, RPMI-1640, 35° C.): 6.25 µg/mL |
| Cc1ccc(C(=C(F)N2CCN(c3ccc(OCC4COC(Cn5ccnc5)(c5ccc(Cl)cc5Cl)O4)cc3)CC2)C(F)(F)F)cc1C (mixture of isomers) [Ex. 129] | >100 | – | 0.78 | 3.13 | 3.13 | – | – | – | >100 | >100 | 1.56 | – | 3.13 | >100 | 0.39 | 3.13 | 0.78 | >100 | >100 | 12.5 | – |
| FC(Oc1ccc(OCC2COC(Cn3ccnc3)(c3ccc(F)cc3F)O2)cc1)=C(c1ccccc1)C(F)(F)F (mixture of isomers) [Ex. 106] | >100 | – | 1.56 | 3.13 | 1.56 | – | – | – | 50.0 | 100 | 3.13 | – | 3.13 | 50.0 | 0.39 | 1.56 | 1.56 | >100 | >100 | 3.13 | – |

Source: patent US6376497B1, “Antifungal azole derivatives having a fluorinated vinyl group and process for preparing same” (Korea Research Institute of Chemical Technology, priority 1999, dated 2002)
